Values quoted from earlier work, collected in patent US10980856B2, “Composition and method for treating plantar fasciitis in humans” (priority 2017, dated 2021).

Assays:
[1] = system: Balb/c mice injected with histamine; conditions: applied immediately after histamine injection
[2] = system: human peripheral blood monocytes; conditions: after 40 hours

Structure (SMILES) | histamine-induced skin edema [1] | superoxide production by agonist-stimulated monocytes (monocytes) | inhibition of lipopolysaccharide-induced production of IL-10 [2] | inhibition of lipopolysaccharide-induced production of TNF-α [2] | inhibition of lipopolysaccharide-induced production of interleukin-1b (IL-1b) [2] | inhibition of lipopolysaccharide-induced production of prostaglandin E2 [2]
CC1=CCC(O)(C(C)C)CC1 (stereo not shown) [terpinen-4-ol] | reduced | suppress | 50% | 50% | 50% | 30%
CC1=CC[C@@H](C(C)(C)O)CC1 [a-terpineol] |  | suppress |  |  |  | 
